From the RepoRT retention time repository (doi:10.1016/j.chroma.2014.05.003)

Experiment: RP, Agilent ZORBAX Eclipse Plus C18, 50 × 4.6 mm, 1.8 µm, 0.5 mL/min, estimated dead time 1.1 min; A: water + 0.1% formic acid; B: acetonitrile + 0.1% formic acid; gradient (min/%B) 0/10 3/10 25/100 28/100
Details: stereoisomer not certain

Row | SMILES | LC retention time [min]
1 | CCSC(=O)N(CC)C1CCCCC1 | 19.8
2 | CCOP(=O)(Sc1ccccc1)Sc1ccccc1 | 17.6
3 | CCC(C)C(=O)OC1CC(O)C=C2C=CC(C)C(CCC(O)CC(O)CC(=O)O)C21 (configuration not stated) | 10.7
4 | CC(C)NCC(O)COc1ccc(CC(N)=O)cc1 (configuration not stated) | 1.76
5 | COC(=O)c1ccccc1S(=O)(=O)NC(=O)Nc1nc(C)cc(C)n1 | 12.2
6 | Nc1ccc(-c2ccc(N)cc2)cc1 | 1.36
7 | Cc1cc(NS(=O)(=O)c2ccc(N)cc2)no1 | 9.06
8 | CCN(CC)c1nc(C)cc(OP(=S)(OC)OC)n1 | 19
9 | Cc1nnc(-c2ccccc2)c(=O)n1N | 7.57
10 | CON=C(C(=O)OC)c1ccccc1COc1ccccc1C | 18
11 | CC(COc1ccc(Oc2ccccc2)cc1)Oc1ccccn1 (configuration not stated) | 21.2
12 | COc1nn(CSP(=S)(OC)OC)c(=O)s1 | 15.3
13 | CN1C2CCC1C(C(=O)O)C(OC(=O)c1ccccc1)C2 (configuration not stated) | 6.61
14 | CN(C)c1ccc(C(c2ccccc2)c2ccc(N(C)C)cc2)cc1 | 12.6
15 | CNC(=O)ON=CC(C)(C)S(C)=O (configuration not stated) | 2.7
16 | CC12CCC3C(=CCc4cc(O)ccc43)C1CCC2=O (configuration not stated) | 14.4
17 | O=C1CCc2cccc3c2N1CC3 | 10.2
18 | CCOC(=O)CCN(SN(C)C(=O)Oc1cccc2c1OC(C)(C)C2)C(C)C | 20.8
19 | Cn1c(=O)[nH]c(=O)c2[nH]cnc21 | 1.47
20 | CCC(C)c1ccccc1OC(=O)NC (configuration not stated) | 15
21 | CCC1OC(=O)C(C)C(OC2CC(C)(OC)C(O)C(C)O2)C(C)C(OC2OC(C)CC(N(C)C)C2O)C(C)(O)CC(C)C(=NOCOCCOC)C(C)C(O)C1(C)O (configuration not stated) | 11.3
22 | COP(=S)(OC)Oc1ccc(SC)c(C)c1 | 18.5
23 | CSC(C)=NOC(=O)N(C)SN(C)C(=O)ON=C(C)SC | 11.8
24 | CNC(=O)Oc1ccccc1C(C)C | 13.6

Row | SMILES | LC retention time [min]
25 | CCC1CCCC(OC2CCC(N(C)C)C(C)O2)C(C)C(=O)C2=CC3C(C=C(C)C4CC(OC5OC(C)C(OC)C(OC)C5OC)CC43)C2CC(=O)O1 (configuration not stated) | 14.2
26 | CC(N)Cc1ccccc1 (configuration not stated) | 3.82
27 | CCOP(=S)(OCC)OP(=S)(OCC)OCC | 19.3
28 | Cc1cc(=O)n(-c2ccccc2)n1C | 6.97
29 | COP(N)(=O)SC (configuration not stated) | 1.61
30 | CC(C)C1(C)N=C(c2ncccc2C(=O)O)NC1=O (configuration not stated) | 16.5
31 | CCNc1nc(NC(C)C)nc(SC)n1 | 10.4
32 | CN(C)C1C(=O)C(C(N)=O)=C(O)C2(O)C(=O)C3=C(O)c4c(O)cccc4C(C)(O)C3CC12 (configuration not stated) | 6.62
33 | CC(=O)Nc1ccc(O)cc1 | 2.66
34 | Cc1cccc(C)c1N | 5.94
35 | O=NN1CCCCC1 | 6.57
36 | COCC(=O)N(c1c(C)cccc1C)C(C)C(=O)OC (configuration not stated) | 12.9
37 | COP(N)(=S)Oc1ccccc1C(=O)OC(C)C (configuration not stated) | 14.9
38 | COC1C(O)CC(=O)OC(C)CC=CC=CC(OC2CCC(N(C)C)C(C)O2)C(C)CC(CC=O)C1OC1OC(C)C(OC2CC(C)(O)C(O)C(C)O2)C(N(C)C)C1O (configuration not stated) | 7.59
39 | CCC(C)(CC)c1cc(NC(=O)c2c(OC)cccc2OC)on1 | 16.5
40 | NC(=O)Cc1cccc2ccccc12 | 10
41 | Nc1ccc(S(=O)(=O)Nc2nccs2)cc1 | 5.2
42 | CCC1OC(=O)C(C)C(OC2CC(C)(OC)C(O)C(C)O2)C(C)C(OC2OC(C)CC(N(C)C)C2O)C(C)(O)CC(C)C(=O)C(C)C(O)C1(C)O (configuration not stated) | 9.73
43 | O=C(NN=Cc1ccc([N+](=O)[O-])o1)c1ccc(O)cc1 | 9.51
44 | CC(C)c1cc(Oc2ccccc2)cc(C(C)C)c1NC(=S)NC(C)(C)C | 22.3
45 | CNC(=C[N+](=O)[O-])NCCSCc1ccc(CN(C)C)o1 | 2.03
46 | CC(Cc1ccc(C(C)(C)C)cc1)CN1CCCCC1 (configuration not stated) | 12.5
47 | Nc1ccc(S(=O)(=O)Nc2ncccn2)cc1 | 4.16
48 | CCC1OC(=O)CC(O)C(C)C(OC2OC(C)C(OC3CC(C)(O)C(O)C(C)O3)C(N(C)C)C2O)C(CC=O)CC(C)C(=O)C=CC(C)=CC1COC1OC(C)C(O)C(OC)C1OC (configuration not stated) | 10.1

Row | SMILES | LC retention time [min]
49 | CCCCN(CC)C(=O)SCCC | 19.6
50 | CC12CCC3c4ccc(O)cc4CCC3C1CCC2O (configuration not stated) | 13.4
51 | CC(C)(C)NCC(O)COc1nsnc1N1CCOCC1 (configuration not stated) | 6.87
52 | CCC(C)C(=O)OC1CCC=C2C=CC(C)C(CCC3CC(O)CC(=O)O3)C21 (configuration not stated) | 15.7
53 | COP(=S)(OC)Oc1ccc(Sc2ccc(OP(=S)(OC)OC)cc2)cc1 | 21.2
54 | CCOC(=O)CC(SP(=O)(OC)OC)C(=O)OCC (configuration not stated) | 11.8
55 | Nc1ncn[nH]1 | 1.36
56 | CC(C)(C)C(O)C(Oc1ccc(-c2ccccc2)cc1)n1cncn1 (configuration not stated) | 16.6
57 | COc1cccc(C(=O)NN(C(=O)c2cc(C)cc(C)c2)C(C)(C)C)c1C | 16.6
58 | COC(=O)Nc1nc2ccc(C(=O)c3ccccc3)cc2[nH]1 | 10.7
59 | CC12CCC3c4ccc(O)cc4CCC3C1CC(O)C2O (configuration not stated) | 9.36
60 | CNC(=O)ON=C(C)C(C)S(C)(=O)=O (configuration not stated) | 4.36
61 | CNC(=O)Oc1cccc2c1OC(C)(C)C2 | 12.1
62 | CC(C)(c1ccc(O)cc1)c1ccc(O)cc1 | 13.1
63 | COP(=O)(NC(C)=O)SC (configuration not stated) | 1.86
64 | O=c1oc2ccccc2c(O)c1C1CC(c2ccc(-c3ccccc3)cc2)Cc2ccccc21 (configuration not stated) | 21.7
65 | COCC(=O)N(c1c(C)cccc1C)N1CCOC1=O | 10.9
66 | COC(=O)NN=Cc1c[n+]([O-])c2ccccc2[n+]1[O-] | 6.32
67 | CSc1nnc(C(C)(C)C)c(=O)n1N | 11.5
68 | Cn1cnc2c1c(=O)[nH]c(=O)n2C | 1.96
69 | COC(=O)c1ccccc1CS(=O)(=O)NC(=O)Nc1nc(OC)cc(OC)n1 | 14.2
70 | CCOP(=S)(OCC)Oc1ccc(S(C)=O)cc1 (configuration not stated) | 13.5
71 | CNCC(O)c1cccc(O)c1 (configuration not stated) | 1.36
72 | CCCCCc1cc(O)c2c(c1)OC(C)(C)C1CCC(C)=CC21 (configuration not stated) | 23.6

Row | SMILES | LC retention time [min]
73 | COc1nc(NC(C)C)nc(NC(C)C)n1 | 9.02
74 | CCNc1nc(NC(C)C(C)C)nc(SC)n1 (configuration not stated) | 13.1
75 | O=NN1CCCC1 | 2.66
76 | CC1(C)SC2C(NC(=O)Cc3ccccc3)C(=O)N2C1C(=O)O (configuration not stated) | 10.8
77 | Cc1ccnc(NS(=O)(=O)c2ccc(N)cc2)n1 | 5.73
78 | C=C(C)C1CCC(C)=CC1c1c(O)cc(CCCCC)cc1O (configuration not stated) | 21.2
79 | CSc1nc(NC(C)C)nc(NC(C)C)n1 | 12.1
80 | CC12CCC3c4ccc(O)cc4CCC3C1CCC2=O (configuration not stated) | 14.6
81 | Nc1ccc(S(N)(=O)=O)cc1 | 1.82
82 | Cn1c(=O)c2c(ncn2C)n(C)c1=O | 5.08
83 | CCCOC(=O)NCCCN(C)C | 2.3
84 | COCc1cnc(C2=NC(C)(C(C)C)C(=O)N2)c(C(=O)O)c1 (configuration not stated) | 8.04
85 | CCN(CC)C(=O)c1cccc(C)c1 | 12.8
86 | CCOP(=S)(OCC)Oc1ccc(=O)n(-c2ccccc2)n1 | 16.1
87 | CON(C(=O)c1cc(C)oc1C)C1CCCCC1 | 17.7
88 | CCNc1nc(NCC)nc(SC)n1 | 8.74
89 | CS(=O)(=O)c1ccc(C(=O)C2C(=O)CCCC2=O)c([N+](=O)[O-])c1 | 12
90 | CCOc1ccc2c3c1OC1C(O)C=CC4C(C2)N(C)CCC341 (configuration not stated) | 5.83
91 | Cc1cc(C)nc(Nc2ccccc2)n1 | 11.6
92 | CN(C(=O)COc1nc2ccccc2s1)c1ccccc1 | 16
93 | CCNC(C)Cc1ccc2c(c1)OCO2 (configuration not stated) | 6.16
94 | CC(=O)OC1C=CC2C3Cc4ccc(O)c5c4C2(CCN3C)C1O5 (configuration not stated) | 4.94
95 | CCCN(CCC)c1c([N+](=O)[O-])cc(S(N)(=O)=O)cc1[N+](=O)[O-] | 17
96 | Cc1onc(-c2ccccc2)c1C(=O)NC1C(=O)N2C1SC(C)(C)C2C(=O)O (configuration not stated) | 12.8

Row | SMILES | LC retention time [min]
97 | CCCCN(CCCC)N=O | 15.9
98 | CCOc1ccc(NC(C)=O)cc1 | 9.38
99 | COc1ccc(-c2ccccc2)cc1NNC(=O)OC(C)C | 16.6
100 | CCCCCCCCCCCC[N+](C)(C)Cc1ccccc1 | 16.2
101 | CCOC(=O)CC(SP(=S)(OC)OC)C(=O)OCC (configuration not stated) | 17
102 | COC(=O)Nc1nc2ccc(S(=O)c3ccccc3)cc2[nH]1 (configuration not stated) | 8.64
103 | CCOP(=S)(OCC)SCSP(=S)(OCC)OCC | 21.7
104 | Cc1ccc(C(C)(C)C)c(O)c1C(=O)O | 14.2
105 | CNC(=O)CSP(=S)(OC)OC | 9
106 | CC(C)NCC(O)COc1cccc2ccccc12 (configuration not stated) | 9.19
107 | CCOC(=O)N(C)C(=O)CSP(=S)(OCC)OCC | 17.8
108 | CC1c2cccc(O)c2C(O)=C2C(=O)C3(O)C(O)=C(C(N)=O)C(=O)C(N(C)C)C3C(O)C21 (configuration not stated) | 8.75
109 | CNC(=O)C=C(C)OP(=O)(OC)OC | 5.55
110 | CC(N)Cc1ccc2c(c1)OCO2 (configuration not stated) | 4.74
111 | CC12CCC3C(CCC4=CC(=O)CCC43C)C1CCC2=O (configuration not stated) | 14.8
112 | O=C(O)c1ccccc1C(=O)Nc1cccc2ccccc12 | 11.7
113 | Oc1ccccc1-c1ccccc1 | 16.3
114 | CNC(=O)ON=C(C)SC | 5.39
115 | CSc1nc(NC2CC2)nc(NC(C)(C)C)n1 | 12.6
116 | c1ccc(Nc2ccccc2)cc1 | 17.2
117 | O=NN1CCOCC1 | 2.21
